# Patent US4556677A, “Alkane and alkene derivatives and their use” (Farmos Group Ltd., priority 1981, dated 1985)
# Read-outs that look alike come from different tables or passages of the source.
# Experiments:
# immature mouse uterus [1] = assay: antiestrogenic effect in vivo, inhibition of oestradiol induced uterus weight increase in immature mice; details: for antiestrogenic effect (in words): immature mice
# Protocol: (§1) The estrogen-antiestrogen (progesterone-antiprogesterone) effect in vivo was determined as follows:
# The antiestrogenic effects of the molecules were determined in a similar manner in immature mice. In this case, the ability of the molecules to inhibit estrogen-induced uterus weight increase was investigated, too.
# The compound 1 at a dose of 0.5 mg/kg caused a 50% inhibition of oestradiol induced effect on mouse uterus.
# (§2) In Table 2 a summary of the oestrogenic/antioestrogenic and progestanic/antiprogestanic effect of some of the compounds can be seen. The percentages refer to increase/reduction in mice uterus weights.
# estrogen receptors = target: T1, estrogen receptors (Rattus norvegicus, UniProt P06211); assay: affinity to estrogen receptors, competition with 3H-labelled 17-β-estradiol (dextran-charcoal method); format: binding; details: rat uterus cytosol, Table 1; read-out: Affinity (concentration of compound where 50% competition (inhibition) with 3H-estradiol occurred)
# T1 construct: rat uterus cytosol preparation; from tissue; host or cells: rat uterus cytosol
# T1 sequence (P06211 1-600): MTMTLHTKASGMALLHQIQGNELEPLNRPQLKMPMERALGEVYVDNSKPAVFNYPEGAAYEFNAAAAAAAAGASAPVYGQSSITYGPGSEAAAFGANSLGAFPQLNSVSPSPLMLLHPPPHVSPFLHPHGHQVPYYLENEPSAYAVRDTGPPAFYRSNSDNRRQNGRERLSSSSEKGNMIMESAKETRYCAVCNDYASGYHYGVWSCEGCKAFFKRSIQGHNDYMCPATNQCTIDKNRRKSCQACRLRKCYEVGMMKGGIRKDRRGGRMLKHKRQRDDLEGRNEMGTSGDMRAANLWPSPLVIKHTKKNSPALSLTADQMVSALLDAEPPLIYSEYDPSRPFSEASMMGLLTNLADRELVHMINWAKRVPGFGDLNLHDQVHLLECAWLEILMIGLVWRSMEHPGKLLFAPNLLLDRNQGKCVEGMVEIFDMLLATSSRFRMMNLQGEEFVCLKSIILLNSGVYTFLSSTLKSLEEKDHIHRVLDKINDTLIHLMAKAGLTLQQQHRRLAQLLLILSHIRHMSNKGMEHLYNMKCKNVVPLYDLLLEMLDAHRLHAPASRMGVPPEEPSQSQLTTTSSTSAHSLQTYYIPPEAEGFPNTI
# Protocol: The affinity to estrogen receptors was determined by the ability of the molecules to compete with ^3 H-labelled 17-β-estradiol in rat uterus cytosol preparation. After incubation, receptor-bound and receptor-unbound ligands were separated by a known dextrancharcoal method. (Korenman, S. G.: "Comparative binding affinity of estrogens and its relation to estrogenic potency". Steroids 13: 163-177, 1969). […] The results in table 1 are shown as follows: | with ^3 H--estradiol occurred
# immature mouse uterus [2] = assay: estrogenic effect in vivo, immature mouse uterus weight; details: for estrogenic effect (in words): immature mouse uterus weight
# Protocol: as §1
# The estrogenic properties of the molecules were determined by administering the molecules, suspended in sesam oil, subcutaneously to 21 days old immature mice on three consecutive days. The mice were killed on the fourth day and the uterus was weighed. Estradiol (positive control) increases the weight of the uterus. The weight correlates with the estrogenic effect of the molecules.
# The estrogenic effect of compounds of the invention as measured by their ability to increase the weight of immature mouse uterus was usually far less than that of oestradiol, the positive control. […] At the dose of 0.5 mg/kg the oestrogenic effect of compound 1, 7 and 8 were respectively 20%, 75% and 83% less and at the dose of 5 mg/kg the oestrogenic effect of compound 2 was 60% less than that of oestradiol 0.05 mg/kg.
# as §2
# mouse uterus [3] = assay: antiprogestanic/synergistic effect in vivo, given together with medroxyprogesterone acetate, mouse uterus weight; details: together with medroxyprogesterone acetate
# Protocol: as §1
# (§3) The (anti)progestanic effects were studied in a similar manners as the estrogenic ones. Medroxyprogesterone acetate, which decreases uterus weight, was used as reference.
# (§4) The progestanic and antiprogestanic effects of compounds were measured as described earlier. The compound No. 2 reduced the weight of mouse uterus by 49% compared to control while medroxyprogesterone acetate gave 40% reduction.
# as §2
# [4] = test system: MCF-7 human mammary adenocarcinoma cell line; assay: anti-tumour effect in vitro, growth of MCF-7 cells (bioluminescence ATP assay); format: cell-based; details: MCF-7, Table 3, read-out: Antitumour effect (IC50 = concentration of compound where 50% inhibition of cell growth could be seen)
# Protocol: The anti-tumour effect was studied in vitro as follows:
# The growth of MCF-7 cell line (human mammary adenocarcinoma, known to be estrogen-dependent) was evaluated in the presence or absence of estradiol, medroxyprogesterone acetate or the molecules to be investigated. Combinations of molecule plus estradiol and molecule plus medroxyprogesterone were also studied. The amount of living cells after 4 h, 24 h and 48 h incubations were determined by bioluminescence assay (intracellular ATP determination).
# The antitumour effects of the compounds had been tested in vitro against MCF-7 human mammary adenocarcinoma cell line and in vivo against DMBA-induced rat mammary adenocarcinomas and transplantable mammary adenocarcinoma.
# In table 3 the antitumour effects of certain compounds can be seen.
# mouse uterus [5] = assay: progestanic effect in vivo, reduction of mouse uterus weight; details: for progestanic effect (in words): given alone
# Protocol: as §1, §3, §4, §2
IC50 (estrogen receptors),"IC50 ([4]; Homo sapiens, MCF7)",IC50 [4],Compound,estrogenic effect (in words) (immature mouse uterus [2]),antiprogestanic / synergistic effect with medroxyprogesterone acetate (in words) (mouse uterus [3]),progestanic effect (in words) (mouse uterus [5]),antiestrogenic effect (in words) (immature mouse uterus [1]),other results
100 to 1000 nM,1000 to 5000 nM,,"CCC(=C(c1ccc(O)cc1)c1ccc(OCCN(C)C)cc1)C1CCCC1 [Compound 7, 2-cyclopentyl-1-[p-(N,N-dimethyl-2-aminoethoxy)phenyl]-1-(p-hydroxyphenyl)-1-butene]",dose dependent,clear dose dependant antiprogestanic effect,did not posses any progestanic effects of its own,,"inhibition of oestradiol induced effect on mouse uterus (immature mouse uterus [1]; 5 mg/kg): 48%; Given with oestradiol: reduction in mice uterus weight (immature mouse uterus [1]; Table 2, 5 mg/kg, with oestradiol 0.05 mg/kg): 48%; oestrogenic effect, % less than that of oestradiol 0.05 mg/kg (immature mouse uterus [2]; 0.5 mg/kg, s.c., immature mice): 75%; Given alone: oestrogenic effect (in words) (immature mouse uterus [2]; Table 2, 0.5 mg/kg, given alone): oestrogenic"
100 to 10000 nM,1000 to 5000 nM,,"CC/C(=C(\c1ccccc1)c1ccc(O)cc1)C1CCCC1 [Compound 3, (Z)-2-cyclopentyl-1-(p-hydroxyphenyl)-1-phenyl-1-butene]",,,,,
,,1000 to 5000 nM,"CCC(C1CCCC1)C(c1ccccc1)c1ccc(O)cc1 (stereo not drawn) [Compound 5, 2-cyclopentyl-1-(p-hydroxyphenyl)-1-phenylbutane]",did not possess any estrogenic effects of their own,slight inhibition of medroxyprogesterone acetate produced effect,did not possess progestanic effects,not antiestrogenic,
,,,"CC(=O)O[C@]1(C(C)=O)CC[C@H]2[C@@H]3C[C@H](C)C4=CC(=O)CC[C@]4(C)[C@H]3CC[C@@]21C [medroxyprogesterone acetate, Medroxyprogesterone acetate, reference compound]",,,,,decrease of mouse uterus weight by medroxyprogesterone acetate alone (mouse uterus [5]; reference compared with compound 8): 20%; reduction of mouse uterus weight by medroxyprogesterone acetate alone (mouse uterus [5]; reference compared with compounds 2 and 11): 40%
,,1000 to 5000 nM,"CCC(C1CCCC1)C(c1ccccc1)c1ccc(O)cc1 (stereo not drawn) [Compound 6, 2-cyclopentyl-1-(p-hydroxyphenyl)-1-phenylbutane]",did not possess any estrogenic effects of their own,slight inhibition of medroxyprogesterone acetate produced effect,did not possess progestanic effects,not antiestrogenic,
10000 to 100000 nM,,,"CCC(CO)C(CC)c1ccc(O)cc1 (stereo not drawn) [Compound 12, 2-ethyl-3-(p-hydroxyphenyl)-1-pentanol]",,,,,
